{"source": "ChEMBL document CHEMBL1140610", "about": "“Matrix metalloproteinases (MMPs): chemical-biological functions and (Q)SARs” (Bioorg Med Chem, 2007)", "data": [{"target": "Collagenase 3 (Homo sapiens, UniProt P45452)", "details": "not given", "units": {"IC50": "µM"}, "values": [{"smiles": "COc1ccc(S(=O)(=O)N2CCN(C(=O)c3nnsc3C)CC2C(=O)NO)cc1", "note": "(stereo not drawn)", "IC50": 0.0209}, {"smiles": "COCCOC(=O)N1CCC(C(C(=O)O)N(Cc2cccnc2)S(=O)(=O)c2ccc(-c3ccc(OC)cc3)cc2)CC1", "note": "(stereo not drawn)", "IC50": 0.00302}, {"smiles": "COc1ccc(S(=O)(=O)N2CCN(C(=O)C(O)C(C)C)CC2C(=O)NO)cc1", "note": "(stereo not drawn)", "IC50": 0.001}, {"smiles": "COc1ccc(S(=O)(=O)N2CCCN(C(=O)CNOC(=O)C(C)(C)C)CC2C(=O)NO)cc1", "note": "(stereo not drawn)", "IC50": 0.0158}]}, {"target": "T1, Matrilysin (Homo sapiens, UniProt P09237)", "T1 sequence (P09237 whole entry)": "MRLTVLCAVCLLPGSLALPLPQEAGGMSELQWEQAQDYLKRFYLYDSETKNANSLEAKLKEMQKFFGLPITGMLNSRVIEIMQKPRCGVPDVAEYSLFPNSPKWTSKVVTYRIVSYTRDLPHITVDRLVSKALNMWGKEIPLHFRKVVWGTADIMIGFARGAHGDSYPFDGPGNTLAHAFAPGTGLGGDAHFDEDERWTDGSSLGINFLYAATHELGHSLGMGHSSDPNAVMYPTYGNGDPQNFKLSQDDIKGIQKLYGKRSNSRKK", "details": "read-out: log(1/IC50) (converted)", "units": {"IC50": "µM"}, "values": [{"smiles": "CCCCOc1ccc(S(=O)(=O)N2CC(N3C(=O)NC(SC)C3=O)C[C@@H]2C(=O)NO)cc1", "note": "(stereo partly drawn)", "IC50": 0.851}, {"smiles": "CCCCOc1ccc(S(=O)(=O)N2CC(N3C(=O)NC(C)(C)C3=O)C[C@@H]2C(=O)NO)cc1", "note": "(stereo partly drawn)", "IC50": 0.447}, {"smiles": "CCOc1ccc(S(=O)(=O)N2CC(N3C(=O)CN(C)C3=O)C[C@@H]2C(=O)NO)cc1", "note": "(stereo partly drawn)", "IC50": 7.59}, {"smiles": "CN1CC(=O)N(C2C[C@H](C(=O)NO)N(S(=O)(=O)c3ccc(Oc4ccncc4)cc3)C2)C1=O", "note": "(stereo partly drawn)", "IC50": 7.41}, {"smiles": "CCCCOc1ccc(S(=O)(=O)N2CC(N3C(=O)CN(CCC)C3=O)C[C@@H]2C(=O)NO)cc1", "note": "(stereo partly drawn)", "IC50": 1.2}, {"smiles": "CCCOc1ccc(S(=O)(=O)N2CC(N3C(=O)CN(C)C3=O)C[C@@H]2C(=O)NO)cc1", "note": "(stereo partly drawn)", "IC50": 2.57}, {"smiles": "CN1CC(=O)N(C2C[C@H](C(=O)NO)N(S(=O)(=O)c3ccc(Oc4ccccc4)cc3)C2)C1=O", "note": "(stereo partly drawn)", "IC50": 0.309}, {"smiles": "COc1ccc(S(=O)(=O)N2CC(N3C(=O)CN(C)C3=O)C[C@@H]2C(=O)NO)cc1", "note": "(stereo partly drawn)", "IC50": 1.82}, {"smiles": "CC(C)COc1ccc(S(=O)(=O)N2CC(N3C(=O)CN(C)C3=O)C[C@@H]2C(=O)NO)cc1", "note": "(stereo partly drawn)", "IC50": 2.29}, {"smiles": "COCCOc1ccc(S(=O)(=O)N2CC(N3C(=O)CN(C)C3=O)C[C@@H]2C(=O)NO)cc1", "note": "(stereo partly drawn)", "IC50": 9.12}, {"smiles": "CCCCOc1ccc(S(=O)(=O)N2CC(N3C(=O)CN(C)C3=O)C[C@@H]2C(=O)NO)cc1", "note": "(stereo partly drawn)", "IC50": 1.58}, {"smiles": "C=CCN1CC(=O)N(C2C[C@H](C(=O)NO)N(S(=O)(=O)c3ccc(OCCOC)cc3)C2)C1=O", "note": "(stereo partly drawn)", "IC50": 11}, {"smiles": "CCCN1CC(=O)N(C2C[C@H](C(=O)NO)N(S(=O)(=O)c3ccc(OCCOC)cc3)C2)C1=O", "note": "(stereo partly drawn)", "IC50": 11}, {"smiles": "C=CCN1CC(=O)N(C2C[C@H](C(=O)NO)N(S(=O)(=O)c3ccc(OCCCC)cc3)C2)C1=O", "note": "(stereo partly drawn)", "IC50": 1}, {"smiles": "C=CCN1CC(=O)N(C2C[C@H](C(=O)NO)N(S(=O)(=O)c3ccc(OCCC)cc3)C2)C1=O", "note": "(stereo partly drawn)", "IC50": 2.57}]}, {"target": "Matrix metalloproteinase-14 (Homo sapiens, UniProt P50281)", "details": "not given", "units": {"IC50": "µM"}, "values": [{"smiles": "CCOCCC1(Oc2ccc(Oc3ccccc3C)cc2)C(=O)NC(=O)NC1=O", "IC50": 0.0708}, {"smiles": "CCOCCC1(Oc2ccc(Oc3ccc(S(C)(=O)=O)cc3)cc2)C(=O)NC(=O)NC1=O", "IC50": 8.71}, {"smiles": "CCOCCC1(Oc2ccc(Oc3ccc(C(F)(F)F)cc3)cc2)C(=O)NC(=O)NC1=O", "IC50": 0.151}, {"smiles": "CCOCCC1(Oc2ccc(Oc3ccc(C(=O)N(C)C)cc3)cc2)C(=O)NC(=O)NC1=O", "IC50": 9.33}, {"smiles": "CCOCCC1(Oc2ccc(Oc3ccc(-c4ccccc4)cc3)cc2)C(=O)NC(=O)NC1=O", "IC50": 0.0363}, {"smiles": "CCOCCC1(Oc2ccc(Oc3ccc(Br)cc3)cc2)C(=O)NC(=O)NC1=O", "IC50": 0.0191}, {"smiles": "CCOCCC1(Oc2ccc(Oc3ccccc3F)cc2)C(=O)NC(=O)NC1=O", "IC50": 0.0158}, {"smiles": "CCOCCC1(Oc2ccc(Oc3cccc(C)c3)cc2)C(=O)NC(=O)NC1=O", "IC50": 0.0501}, {"smiles": "CCOCCC1(Oc2ccc(Oc3cccc(F)c3)cc2)C(=O)NC(=O)NC1=O", "IC50": 0.0603}, {"smiles": "CCOCCC1(Oc2ccc(Oc3ccc(C(C)(C)C)cc3)cc2)C(=O)NC(=O)NC1=O", "IC50": 6.76}, {"smiles": "CCOCCC1(Oc2ccc(Oc3ccc(F)cc3)cc2)C(=O)NC(=O)NC1=O", "IC50": 0.0229}, {"smiles": "CCOCCC1(Oc2ccc(Oc3ccc(C(N)=O)cc3)cc2)C(=O)NC(=O)NC1=O", "IC50": 0.617}, {"smiles": "CCOCCC1(Oc2ccc(Oc3ccc(C#N)cc3)cc2)C(=O)NC(=O)NC1=O", "IC50": 0.2}, {"smiles": "CCOCCC1(Oc2ccc(Oc3ccc(OC)cc3)cc2)C(=O)NC(=O)NC1=O", "IC50": 0.219}, {"smiles": "CCOCCC1(Oc2ccc(Oc3ccc(C(=O)NC)cc3)cc2)C(=O)NC(=O)NC1=O", "IC50": 0.646}, {"smiles": "CCOCCC1(Oc2ccc(Oc3cccc(Cl)c3)cc2)C(=O)NC(=O)NC1=O", "IC50": 0.12}, {"smiles": "CCOCCC1(Oc2ccc(Oc3ccc(C)cc3)cc2)C(=O)NC(=O)NC1=O", "IC50": 0.0229}, {"smiles": "CCOCCC1(Oc2ccc(Oc3ccc(Cl)cc3)cc2)C(=O)NC(=O)NC1=O", "IC50": 0.0182}, {"smiles": "CCOCCC1(Oc2ccc(Oc3ccccc3Cl)cc2)C(=O)NC(=O)NC1=O", "IC50": 0.513}]}, {"target": "Neutrophil collagenase (Homo sapiens, UniProt P22894)", "sequence (P22894 whole entry)": "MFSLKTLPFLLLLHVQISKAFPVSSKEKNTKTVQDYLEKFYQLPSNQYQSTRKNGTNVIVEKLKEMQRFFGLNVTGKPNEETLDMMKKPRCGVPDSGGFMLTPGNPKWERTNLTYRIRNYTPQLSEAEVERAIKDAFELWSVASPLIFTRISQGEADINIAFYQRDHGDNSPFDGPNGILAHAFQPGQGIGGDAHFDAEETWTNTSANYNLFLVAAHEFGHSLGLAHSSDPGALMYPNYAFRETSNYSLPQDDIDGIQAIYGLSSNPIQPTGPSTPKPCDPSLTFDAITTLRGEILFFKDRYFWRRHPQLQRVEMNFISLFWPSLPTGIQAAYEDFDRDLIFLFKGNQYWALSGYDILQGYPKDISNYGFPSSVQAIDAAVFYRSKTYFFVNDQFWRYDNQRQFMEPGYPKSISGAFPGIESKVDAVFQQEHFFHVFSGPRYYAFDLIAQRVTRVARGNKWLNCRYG", "details": "read-out: log(1/IC50) (converted)", "units": {"IC50": "µM"}, "values": [{"smiles": "COCCOC(=O)N1CCC(C(C(=O)O)N(Cc2cccnc2)S(=O)(=O)c2ccc(-c3ccc(OC)cc3)cc2)CC1", "note": "(stereo not drawn)", "IC50": 0.00324}]}, {"target": "T2, Interstitial collagenase (Homo sapiens, UniProt P03956)", "T2 sequence (P03956 whole entry)": "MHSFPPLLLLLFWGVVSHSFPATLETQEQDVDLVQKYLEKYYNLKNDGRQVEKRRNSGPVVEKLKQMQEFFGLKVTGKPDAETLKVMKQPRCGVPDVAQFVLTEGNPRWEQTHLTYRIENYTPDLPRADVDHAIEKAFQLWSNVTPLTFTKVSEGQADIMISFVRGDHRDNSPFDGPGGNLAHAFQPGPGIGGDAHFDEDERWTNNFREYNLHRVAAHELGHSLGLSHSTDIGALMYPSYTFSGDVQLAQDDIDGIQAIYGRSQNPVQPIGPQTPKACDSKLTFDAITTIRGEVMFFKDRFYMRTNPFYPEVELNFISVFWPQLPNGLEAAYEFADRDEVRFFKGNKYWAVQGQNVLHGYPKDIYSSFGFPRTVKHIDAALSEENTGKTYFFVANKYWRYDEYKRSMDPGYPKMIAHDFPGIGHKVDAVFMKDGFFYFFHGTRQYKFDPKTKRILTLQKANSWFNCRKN", "details": "read-out: log(1/IC50) (converted)", "units": {"IC50": "µM"}, "values": [{"smiles": "CNC(=O)[C@@H](NC(=O)C(CC1CC1)CP(=O)(O)Cc1ccc(Cc2ccccc2)cc1)C(C)(C)C", "note": "(stereo partly drawn)", "IC50": 0.2}, {"smiles": "C[C@@]1(O)CCCN(S(=O)(=O)c2ccc(OCc3ccnc4ccccc34)cc2)C1C(=O)NO", "note": "(stereo partly drawn)", "IC50": 0.12}, {"smiles": "C[C@@]1(O)CCCN(S(=O)(=O)c2ccc(OCc3ccnc(Cl)c3)cc2)C1C(=O)NO", "note": "(stereo partly drawn)", "IC50": 0.525}, {"smiles": "CNC(=O)[C@@H](Cc1ccc(OC)cc1)NC(=O)C(CC(C)C)CP(=O)(O)Cc1ccc(CC(C)C)cc1", "note": "(stereo partly drawn)", "IC50": 4.47}, {"smiles": "C[C@@]1(O)CCCN(S(=O)(=O)c2ccc(OCc3cccc(F)c3)cc2)C1C(=O)NO", "note": "(stereo partly drawn)", "IC50": 0.339}, {"smiles": "CNC(=O)[C@@H](Cc1ccc(OC)cc1)NC(=O)C(CC(C)C)CP(=O)(O)Cc1ccc(S(=O)(=O)c2ccccc2)cc1", "note": "(stereo partly drawn)", "IC50": 1.7}, {"smiles": "CC(C)CC(C(=O)NO)N(Cc1ccccc1)S(=O)(=O)c1c(F)c(F)c(F)c(F)c1F", "note": "(stereo not drawn)", "IC50": 0.00603}, {"smiles": "CCCC(CP(=O)(O)Cc1ccc(Cc2ccccc2)cc1)C(=O)N[C@H](C(=O)NC)C(C)(C)C", "note": "(stereo partly drawn)", "IC50": 0.339}, {"smiles": "CC(C(=O)NO)N(Cc1ccc([N+](=O)[O-])cc1)S(=O)(=O)c1c(F)c(F)c(F)c(F)c1F", "note": "(stereo not drawn)", "IC50": 0.00398}]}]}
